Data taken from patent US20250352675A1, “CA-IX TARGETING FLUORESCENT PROBES” (BRACCO IMAGING S.P.A., priority 2022, published 2025).
Where two headings read alike, the source gives them in different places.

Assays:
[1] = biological target: T1, recombinant bovine CAII enzyme (bCAII) (Bos taurus, UniProt P00921); assay: Dansylamide (DNSA) displacement fluorescence assay on carbonic anhydrase catalytic site; format: binding
T1 construct: purchased Sigma-Aldrich; host or cells: E. coli
Experimental: The binding affinity of the compounds of formula (I) to Carbonic Anhydrase (CA) catalytic site was determined to assess the targeting efficacy of the molecular vectors, even after labeling the targeting ligand with the fluorescent portion of the probe.
Such enzyme in fact is highly available and has a catalytic site with high degree of homology in different carbonic anhydrase isoforms (Aggarwal M. et al., J Enzyme Inhib Med Chem 2013; 28(2): 267-277).
The dissociation constant (Ko) of compounds of formula (I) for bCAII was estimated by performing a fluorescence-based assay, exploiting the drop of fluorescence deriving from the displacement of carbonic anhydrase-bound dansylamide (DNSA) in presence of competitors and was adapted for application in 96-well plates from Wang S C et al., Biochem Mol Biol Educ. 2006, 34(5): 364-368. […] In both cases DNSA is excited at about 320 nm. Thus, excitation of carbonic anhydrase aromatic residues (Trp) at 285 nm generates an emission at 340 nm, that is quenched in presence of bound DNSA. The quenching occurs by FRET (fluorescence resonance energy transfer) to bound DNSA, which is in turn excited, emitting at 460 nm.
Molecules that bind to CA in the same binding site of DNSA, such as sulfonamides or derivatives, competitively displace DNSA from CA. The degree of displacement is function of the affinity of competitors and can be followed through the drop of fluorescence at 460 nm.
In detail, 5-(Dimethylamino)-1-naphthalenesulfonamide (dansylamide, DNSA, Sigma-Aldrich 218898) was reconstituted in 20 mM Tris pH 8, aliquoted and stored at −20° C.; bCAII (recombinant, expressed in E. Coli, Sigma-Aldrich) was divided in aliquots and stored at −20° C.
DNSA fluorescence emission at 462 nm from each well was recorded after excitation at 285 nm (Trp wavelength of excitation) and consequent selective excitation of DNSA bound to bCAII by FRET. Fractional saturation of bCAII was experimentally determined through normalization of fluorescence data between 1 (no compounds) and 0 (maximal DNSA displacement by presence of binding competitors), according to the equation below: […]
where r is fractional saturation, FLobs is the recorded fluorescence intensity, FLmin is the fluorescence intensity recorded at maximal concentration of compounds, and FLmax is fluorescence recorded in absence of compounds.
The KD of CA-binding compounds (=KDcomp) was then derived by mathematical fitting of experimental data according to the equation: […]
Mathematical fitting was performed using Microsoft Excel Solver.
All compounds were tested in triplicate.

[2] = Optical characterization (excitation/emission maxima, molar extinction coefficient); format: physicochemical; details: in water
[3] = system: HT-29 tumor; assay: Ex vivo tumor-to-background ratio in excised HT-29 tumors; design: species or system mice; details: 1 nmol/mouse, samples collected 24 hours after administration; tumor vs hind limb muscle
Experimental: (§1) The ex vivo biodistribution of the representative compounds 1, 2 and 3 and of the reference compound HF-1 (at 1 nmol/mouse) was evaluated in HT-29 excised tumors and tissues at the end of the in vivo OI sessions 24 hours post intravenous administration. At the end of the in vivo experiment, animals were euthanized by overdose of gaseous anesthesia followed by cervical dislocation. Tumor tissue, muscle, and other organs of interest were removed for ex vivo fluorescent signal measurements. The fluorescence signal intensity was measured by the IVIS Spectrum system. Regions of interest (ROIs) were drawn around each organ and tumor using the Living Image Software (PerkinElmer) and evaluating signal intensity in the tissues (expressed as Average Radiant Efficiency). The ratio between the fluorescence signal in the organs and tumor was then calculated to assess the contrast to hind limb muscle (representing the background).

[4] = Ex vivo biodistribution, organ-to-muscle ratio; format: in vivo, mice; details: 1 nmol/mouse, 24 hours after administration
Experimental: as §1
Moreover, FIG. 6 (b) and Table VIII show the accumulation and distribution of the fluorescent probes in the dissected organs, reporting the ex vivo values of organs-to-muscle ratio from samples collected at 24 hours after the administration of representative compounds 1, 2 and 3 and of the reference compound HF-1 (1 nmol/mouse).

[5] = biological target: T2, CA-IX (Homo sapiens, UniProt Q16790); assay: Cellular binding assessment by flow cytometry on CA-IX expressing HT-29 cells; details: 1 hour 30 min on ice, read-out: CA-IX receptor affinity (KD, to HT-29 cells)
T2 construct: host or cells: HT-29 human colorectal adenocarcinoma cells
Experimental: Human colon adenocarcinoma HT-29 cells (ATCC) used for the cellular binding experiments were cultured in McCoy's 5A medium (Sigma-Aldrich), supplemented with 10% HyClone Fetal Clone III (Euroclone), 2 mM L-glutamine (Sigma-Aldrich), 100 IU/mL penicillin, 0.1 mg/mL streptomycin, 0.25 μg/mL amphotericin B (Antibiotic-Antimycotic solution, Life Technologies) and cells were grown at 37° C. in humidified atmosphere enriched with 5% CO2. DPBS without MgCl2 and CaCl2 (Sigma-Aldrich) was used for cell rinsing.
Indeed, by using the anti-human CA-IX antibody MAB2188 (R&D Systems) and the DAKO […], according to the instruction of the datasheet, HT-29 cells were estimated to express about 150,000 CA-IX molecules per cell. Thus, HT-29 cells were used to measure the binding of all compounds to CA-IX, expressed in its physiological environment at the cell-surface. Briefly, HT-29 cells were detached with StemPro® Accutase® Cell Dissociation Reagent (Life Technologies), collected in DPBS and counted. At least 2·10^5 cells were placed in 1.5 mL tubes on ice and resuspended in 50-100 μL of cold FACS buffer (eBioscience™ Flow Cytometry Staining Buffer, Invitrogen) containing scalar concentrations of compounds (compound 1: range 1-5 μM; compounds 2 and 3: range 0-20 μM). After incubation (1 hour and 30 min on ice in the dark), cells were rinsed 3 times in 300 μL of cold FACS buffer by centrifugation (5 min, 4° C., 350 RCF), discarding the supernatant. Cell pellets were then resuspended in 200 μL of cold FACS buffer (or in a suitable volume in order to obtain no more than 1000 recorded events per μL during FACS analysis) and analyzed with the flow cytometer Accuri™ C6 (BD Biosciences). The mean cell-associated fluorescence was plotted against concentration and the dissociation constant at equilibrium (Ko) was inferred by mathematical fitting with GraphPad Prism v.9 software, according to the following equation: […]
where Bmax is the maximum specific binding in the same units as Y. KD is the equilibrium dissociation constant, in the same units as X. NS is the slope of nonspecific binding in Y units divided by X units. Background is the amount of nonspecific binding with no added Compound.
All compounds were analyzed in at least three independent experiments. The calculated KD are summarized in Table III and compared with the one obtained for HF-1.

[6] = Optical characterization (excitation/emission maxima, molar extinction coefficient); format: physicochemical
Experimental: A dual-beam UV-VIS spectrophotometer (Lambda 40, Perkin Elmer) was used to determine the absorbance (Abs) of the compounds of the invention. Emission/excitation (Em/Ex) spectra were carried out on a spectrofluorometer (FluoroLog-3 1IHR-320, Horiba Jobin Yvon) equipped with an F-3018 integrating sphere accessory. The measurements were performed using an excitation wavelength at maximum absorbance of different dyes, and the sample was excited with a 450W Xenon Light Source. Detection was performed by photomultiplier tubes (PMT-NIR) cooled detector or by TBX-04 detector. Dye solutions were carefully prepared to have an absorbance lower than 0.1 (optical densities) to minimize re-absorption phenomena.
The compounds of the invention were characterized in terms of their optical properties in vitro in aqueous medium (i.e., water/PBS pH 7.4) and in a clinical chemistry control serum (Seronorm, Sero S A), mimicking the chemical composition and optical properties of human serum. All solutions were freshly prepared. In particular, the compounds of the invention are characterized by absorption maxima comprised in the range from about 750 nm to 780 nm.
The excitation and emission maxima in PBS and Seronorm and the molar extinction coefficient (E) in water of representative compounds of formula (I) are shown in Table I in comparison with the known CA-IX targeting fluorescent probe named Hypoxyfluor-1 (HF-1, for instance disclosed in Bioconjugate Chem 2018, 29, 3320-3331). […] Moreover, the extinction coefficients were higher than […] for all compounds.

[7] = injection into the patient; cited from earlier work

T1 sequence (P00921 whole entry): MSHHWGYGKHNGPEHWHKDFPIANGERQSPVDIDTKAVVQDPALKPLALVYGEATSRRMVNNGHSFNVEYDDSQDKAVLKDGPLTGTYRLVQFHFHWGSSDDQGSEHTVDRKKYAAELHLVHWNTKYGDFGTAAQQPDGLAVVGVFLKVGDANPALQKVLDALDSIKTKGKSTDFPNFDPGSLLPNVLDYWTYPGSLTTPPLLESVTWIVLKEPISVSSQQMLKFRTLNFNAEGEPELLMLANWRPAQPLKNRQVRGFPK

In the case of CN(C)c1cccc2c(S(N)(=O)=O)cccc12 [DNSA, 5-(Dimethylamino)-1-naphthalenesulfonamide, reference compound], the Kd ([1]; previously experimentally determined, read-out: dissociation constant at equilibrium of DNSA (KDDNSA)) is reported as 170 nM.

In the case of CC1(C)C(/C=C/C2=C(Oc3ccc(CCC(=O)NCCCCCCCC(=O)Nc4nnc(S(N)(=O)=O)s4)cc3)C(=C/C=C3/N(CCCCS(=O)(=O)O)c4ccc(S(=O)(=O)O)cc4C3(C)C)/CCC2)=[N+](CCCCS(=O)(=O)[O-])c2ccc(S(=O)(=O)O)cc21 [HF-1, reference compound], the molar extinction coefficient (ε) [2] is reported as 255000 M⁻¹ cm⁻¹, the “ex vivo TBR ± SD, HT-29 tumor” value [3] is reported as 3.1 ± 0.3 and the “Organ-to-muscle ratio, intestine” value [4] is reported as 2.2 ± 1.3. The “Organ-to-muscle ratio, kidney” value [4] was 2.4 ± 0.3, the “Organ-to-muscle ratio, liver” value [4] was 5.7 ± 0.2 and the “Organ-to-muscle ratio, skin” value [4] was 1.4 ± 0.0. For the same molecule, the “Organ-to-muscle ratio, spleen” value [4] was 1.4 ± 0.3, the “Organ-to-muscle ratio, stomach” value [4] was 4.0 ± 1.7 and the Kd ([1]; 0.25 μM bCAII, 5 μM DNSA, 20 mM Tris pH 8, triplicate, read-out: CAII receptor affinity (KD)) was 9.5 ± 1 nM. The Kd [5] was 115 ± 8 nM, the “Max Em” value ([6]; PBS pH 7.4) was 798 nm and the “Max Ex” value ([6]; PBS pH 7.4) was 772 nm. The “Max Em” value ([6]; Seronorm) was 808 nm and the “Max Ex” value ([6]; Seronorm) was 792 nm.

For “^124I-cG250: chimeric version of monoclonal antibody G250 labelled with the radionuclide 124I”, the “time after injection to reach tumor/blood ratios suitable for imaging” value [7] is listed as 2 to 7 days.
